In patent EP0246061A2, “A benzoylurea derivative and its production and use” (SUMITOMO CHEMICAL COMPANY, LIMITED, priority 1986, dated 1987):
Where two headings read alike, the source gives them in different places.

How the values were obtained:
Assay type in all cases: in vivo
[1] = tested on: diamond-back moth (Plutella xylostella) of a field strain; assay: Emergence inhibition test on third instar larvae of diamond-back moth, cabbage leaf dipping (Test example 4); details: 200,000-fold dilution (0.5 ppm); cabbage leaf dipped 1 minute; ten third instar larvae; after nine days; corrected against untreated plot; two replications
Experimental: A circular cabbage leaf of 9.0 cm in diameter was dipped for 1 minute in the 200,000-fold aqueous dilute solutions each (corresponding to 0.5 ppm) of emulsifiable concentrates prepared from the following present compounds and controls according to Formulation example 1. After air-drying, the leaf was put in a polyethylene cup of 11 cm in diameter in which a filter paper was placed on the bottom, and ten third instar larvae of diamond-back moth (Plutella xylostella) of a field strain were liberated therein. After nine days, the number of emergence was examined to obtain an emergence inhibitory ratio (two replications).

[2] = tested on: tobacco cutworm (Spodoptera litura); assay: Mortality test on fourth instar larvae of tobacco cutworm on treated artificial diet (Test example 2); details: 144 h; for mortality at 0.5 ppm: read-out: Concentration and mortality (%) 0.5 ppm; for mortality at […]: in Nicotiana tabacum, read-out: Concentration and mortality (%) […], 1.5 ppm, 2 ml on 13 g artificial diet, ten fourth instar larvae, after six days, two replications
Experimental: The emulsifiable concentrates of the following present compounds and controls prepared according to Formulation example 1 were each diluted with water to a prescribed concentration, and 2 ml of the aqueous dilute solution thus obtained was applied onto 13 g of artificial diet for tobacco cutworm (Spodoptera litura) which were then put in a polyethylene cup of 11 cm in diameter. Then, ten fourth instar larvae of tobacco cutworm were liberated therein. After six days, the dead and alive were examined to obtain mortality (two replications).

[3] = tested on: rice stem borer (Chilo suppressalis); assay: Mortality test on 10-day old larvae of rice stem borer on treated artificial diet (Test example 3); details: 192 h, 67,000-fold dilution (1.5 ppm), 1 ml on 5 g artificial diet, ten 10-day old larvae, after eight days, two replications
Excerpt: Then, ten 10-day old larvae of rice stem borer were liberated therein. After eight days, the dead and alive were examined to obtain mortality (two replications).

[4] = tested on: common mosquito (Culex pipiens pallens); assay: Emergence inhibition test on last instar larvae of common mosquito in aqueous dilute solution (Test example 1); details: active ingredient concentration 3.5 ppm in water; 20 last instar larvae; bred until emergence; two replications
Experimental: The emulsifiable concentrates of the following present compounds prepared according to Formulation example 1 were each diluted with water so that the active ingredient concentration was 3.5 ppm. Thereafter, 100 ml of the aqueous dilute solution thus obtained was put in a 180-ml polyethylene cup, and 20 last instar larvae of common mosquito (Culex pipiens pallens) were liberated therein. The larvae were bred on a bait until emergence to obtain an emergence inhibitory ratio (two replications).

[5] = 0.5 ppm, 2 ml on 13 g artificial diet, ten fourth instar larvae, after six days, two replications

Row | SMILES | Emergence inhibitory ratio (%) [1] | mortality at 0.5 ppm [2] | mortality at […] [3] | mortality at 0.5 ppm [2, 5] | mortality at […] [2] | Emergence inhibitory ratio (%) [4]
1 | O=C(NC(=O)c1c(F)cccc1F)Nc1ccc(Cl)cc1 [(A), Diflubenzuron, reference compound] | 11% | 5% |  |  |  | 
2 | CNC(=O)ON=C(C)SC [(D), Methomyl, reference compound] | 0% |  | 5% | 0% | 10% | 
3 | O=C(NC(=O)c1c(F)cc(F)cc1F)Nc1ccc(C(F)(F)F)cc1F [(5), N-2,4,6-trifluorobenzoyl-Nʹ-2-fluoro-4-trifluoromethylphenylurea] | 100% |  | 100% | 100% | 100% | 100%
4 | O=C(NC(=O)c1c(F)cccc1F)Nc1ccc(C(F)(F)F)cc1F [(1), N-2,6-difluorobenzoyl-Nʹ-2-fluoro-4-trifluoromethylphenylurea] | 100% |  | 90% | 80% | 100% | 100%
5 | O=C(NC(=O)c1c(F)cccc1F)Nc1cc(Cl)c(F)c(Cl)c1F [(C), Teflubenzuron, reference compound] | 33% | 20% |  |  |  | 
6 | O=C(NC(=O)c1c(F)cccc1F)Nc1ccc(C(F)(F)C(F)(F)F)cc1F [(9), N-2,6-difluorobenzoyl-Nʹ-2-fluoro-4-pentafluoroethylphenylurea] | 100% |  | 90% | 100% | 100% | 100%
7 | O=C(NC(=O)c1c(F)cccc1F)Nc1cc(F)c(C(F)(F)C(F)(F)F)cc1F [(6), N-2,6-difluorobenzoyl-Nʹ-2,5-difluoro-4-pentafluoroethylphenylurea] | 100% |  | 80% | 100% | 100% | 100%
8 | O=C(NC(=O)c1c(F)cccc1F)Nc1cc(F)c(C(F)(F)F)cc1F [(2), N-2,6-difluorobenzoyl-Nʹ-2,5-difluoro-4-trifluoromethylphenylurea] | 100% |  | 100% | 100% | 100% | 100%
9 | O=C(NC(=O)c1c(F)cccc1F)Nc1cc(F)c(C(F)(F)C(F)(F)C(F)(F)F)cc1F [(7), N-2,6-difluorobenzoyl-Nʹ-2,5-difluoro-4-heptafluoropropylphenylurea] | 100% |  | 100% | 100% | 100% | 100%
10 | O=C(NC(=O)c1c(F)cccc1F)Nc1ccc(Cl)cc1F [(E), reference compound] | 33% |  | 35% | 10% | 45% | 
11 | O=C(NC(=O)c1c(F)cc(F)cc1F)Nc1cc(F)c(C(F)(F)F)cc1F [(3), N-2,4,6-trifluorobenzoyl-Nʹ-2,5-difluoro-4-trifluoromethylphenylurea] | 89% |  | 90% | 100% | 100% | 100%
12 | O=C(NC(=O)c1c(F)cccc1F)Nc1cc(Cl)c(C(F)(F)F)cc1F [(4), N-2,6-difluorobenzoyl-Nʹ-5-chloro-2-fluoro-4-trifluoromethylphenylurea] | 89% |  | 100% | 70% | 100% | 100%
13 | O=C(NC(=O)c1c(F)cccc1F)Nc1cc(Cl)cc(C(F)(F)F)c1Cl [(F), reference compound] | 22% |  | 10% | 20% | 60% | 
14 | O=C(NC(=O)c1c(F)cc(F)cc1F)Nc1ccc(C(F)(F)C(F)(F)F)cc1F [(10), N-2,4,6-trifluorobenzoyl-Nʹ-2-fluoro-4-pentafluoroethylphenylurea] | 100% |  | 80% | 100% | 100% | 100%
15 | O=C(NC(=O)c1c(F)cc(F)cc1F)Nc1cc(F)c(C(F)(F)C(F)(F)C(F)(F)F)cc1F [(8), N-2,4,6-trifluorobenzoyl-Nʹ-2,5-difluoro-4-heptafluoropropylphenylurea] | 73% |  | 80% |  |  | 100%
